Consider 15 molecules from ChEMBL document CHEMBL5532750, “Small molecule targeted therapies for endometrial cancer: progress, challenges, and opportunities” (RSC Med Chem, 2024).

The test system of test [1] is Ishikawa. The experiment in a line: Anticancer activity against human Ishikawa cells assessed as cell mortality rate at 600 uM measured after 48 hrs by MTT assay relative to control. In kind it is functional. (Tetrazolium assays rely on reduction of a dye to a coloured formazan, in cell work by metabolically active cells.)
The subject of test [2] is Ishikawa. The experiment in a line: Anticancer activity against human Ishikawa cells assessed as cell mortality rate at 100 uM measured after 48 hrs by MTT assay relative to control. It counts as functional.
In test [3] the test system is Ishikawa. The experiment in a line: Anticancer activity against human Ishikawa cells assessed as cell mortality rate at 100 uM measured after 24 hrs by MTT assay relative to control. In kind it is functional.
Test [4] relates to Ishikawa. The experiment in a line: Antiproliferative activity against human Ishikawa cells assessed as inhibition of VEGF secretion measured after 24 hrs by ELISA assay. It counts as functional, cell-based. (In general: An ELISA detects its analyte on a solid surface through an enzyme-linked reagent.)
In test [5] the test system is Ishikawa. The experiment in a line: Antiproliferative activity against human Ishikawa cells assessed as reduction in cell viability. It counts as functional, cell-based.
The test system of test [6] is ECC-1. The experiment in a line: Antiproliferative activity against human ECC-1 cells assessed as combination index at 0.5 mM incubated for 48 hrs in presence of paclitaxel by MTT assay. It counts as functional.
Test [7] deals with Ishikawa. The experiment in a line: Antiproliferative activity against human Ishikawa cells assessed as combination index at 0.5 mM incubated for 48 hrs in presence of paclitaxel by MTT assay. In kind it is functional.
The test system of test [8] is HEC-1B cell line. The experiment in a line: Antiproliferative activity against human HEC-1B cell line assessed as reduction in cell viability.
Test [9] relates to SPEC-2. The experiment in a line: Induction of cell death in human SPEC-2 cells assessed as increase in caspase-9 by measuring fold change using […] as substrate at 5 uM incubated for 24 hrs followed by substrate addition and measured after 30 mins by ELISA analysis. As to conditions: time 1470 min, 24.5 h. In kind it is functional.
Test [10] has as its system ECC-1. The experiment in a line: Antitumor activity against human ECC-1 cells xenografted in LKB1fl/flp53fl/fl mouse assessed as tumor growth inhibition (reference value: 68 %). It counts as functional.
Test [11] concerns USPC-ARK-1. The experiment in a line: Induction of cell death in human USPC-ARK-1 cells assessed as increase in caspase-9 by measuring fold change using […] as substrate at 5 uM incubated for 24 hrs followed by substrate addition and measured after 30 mins by ELISA analysis. It counts as functional. As to conditions: time 1470 min, 24.5 h.
In test [12] the test system is Ishikawa. The experiment in a line: Antitumor activity against human Ishikawa cells xenografted in LKB1fl/flp53fl/fl mouse assessed as tumor growth inhibition (reference value: 68 %). In kind it is functional.
Test [13] deals with SPEC-2. The experiment in a line: Induction of apoptosis in human SPEC-2 cells assessed as decrease in mitochondrial membrane potential at 5 uM incubated for 8 hrs by JC-1 fluorescent probe based plate reader analysis. It counts as functional. The arrangement: scale not given: the % may be the effect or the level left.
The test system of test [14] is USPC-ARK-1. The experiment in a line: Induction of cell death in human USPC-ARK-1 cells assessed as increase in ROS level at 5 uM incubated for 24 hrs by DCFH-DA based microplate reader analysis relative to control. It counts as functional.
Test [15] deals with SPEC-2. The experiment in a line: Induction of cell death in human SPEC-2 cells assessed as increase in cleaved caspase-3 by measuring fold change using Ac-DEVD-AMC as substrate at 5 uM incubated for 24 hrs followed by substrate addition and measured after 30 mins by ELISA analysis. As to conditions: time 1470 min, 24.5 h. It counts as functional.
In test [16] the test system is SPEC-2. The experiment in a line: Inhibition of cell invasion in serum-starved human SPEC-2 cells at 0.05 to 5 uM incubated for 3.5 hrs by calcein AM staining based plate reader analysis relative to control. It counts as functional. As to conditions: dose 0.05-5 µM.
The subject of test [17] is USPC-ARK-1. The experiment in a line: Antiproliferative activity against human USPC-ARK-1 cells assessed as reduction in cell viability incubated for 72 hrs by MTT assay. It counts as functional, cell-based. As to conditions: USPC-ARK-1, 72 h.
The test system of test [18] is USPC-ARK-1. The experiment in a line: Induction of cell death in human USPC-ARK-1 cells assessed as increase in cleaved caspase-3 by measuring fold change using Ac-DEVD-AMC as substrate at 5 uM incubated for 24 hrs followed by substrate addition and measured after 30 mins by ELISA analysis. It counts as functional. As to conditions: time 1470 min, 24.5 h.
The subject of test [19] is SPEC-2. The experiment in a line: Antiproliferative activity against human SPEC-2 cells assessed as reduction in cell viability incubated for 72 hrs by MTT assay. It counts as functional, cell-based. The note with it: SPEC-2, 72 h.
For test [20], the system named is USPC-ARK-1. The experiment in a line: Inhibition of cell invasion in serum-starved human USPC-ARK-1 cells at 0.05 to 5 uM incubated for 3.5 hrs by calcein AM staining based plate reader analysis relative to control. It counts as functional. As to conditions: dose 0.05-5 µM.
In test [21] the test system is SPEC-2. The experiment in a line: Induction of cell death in human SPEC-2 cells assessed as increase in ROS level at 5 uM incubated for 24 hrs by DCFH-DA based microplate reader analysis relative to control. In kind it is functional.
In test [22] the test system is USPC-ARK-1. The experiment in a line: Induction of apoptosis in human USPC-ARK-1 cells assessed as decrease in mitochondrial membrane potential at 5 uM incubated for 8 hrs by JC-1 fluorescent probe based plate reader analysis. More on the design: scale not given: the % may be the effect or the level left. It counts as functional.
The test system of test [23] is ECC-1. The experiment in a line: Antiproliferative activity against human ECC-1 cells assessed as reduction in cell viability. In kind it is functional, cell-based.
In test [24] the test system is Ishikawa. The experiment in a line: Antiproliferative activity against human Ishikawa cells assessed as combination index incubated for 48 hrs in presence of Metformin by MTT assay. In kind it is functional.
Test [25] deals with ECC-1. The experiment in a line: Antiproliferative activity against human ECC-1 cells assessed as combination index incubated for 48 hrs in presence of Metformin by MTT assay. It counts as functional.
Test [26] concerns HEC-1B cell line. The experiment in a line: Induction of apoptosis in human HEC-1B cell line assessed as fold change incubated for 48 hrs. It counts as functional.
The test system of test [27] is RL95-2. The experiment in a line: Induction of apoptosis in human RL95-2 cells assessed as fold change incubated for 48 hrs. In kind it is functional.
Test [28] relates to Ishikawa. The experiment in a line: Induction of apoptosis in human Ishikawa cell line assessed as fold change incubated for 48 hrs. In kind it is functional.

Bounds are passed on as bounds.

Consider `CC(C)CC(/N=C/c1cccc(B(O)O)c1)C(=O)O` (stereo not drawn), for which the Activity in [1] came out at 88.3%.
As to `OB(O)c1ccc(/C=N/c2cccc3cccc(/N=C/c4ccc(B(O)O)cc4)c23)cc1`, in test [2], the Activity is listed as 72%.
In the case of `CC(C)CC(/N=C/c1ccc(B(O)O)cc1)C(=O)O` (stereo not drawn), the Activity in test [1] amounted to 76%.
Regarding `OB(O)c1cccc(/C=N/c2ccc(-c3ccc(/N=C/c4cccc(B(O)O)c4)cc3)cc2)c1`, the Activity in test [2] was 84%.
Turning to `O=C(O)CSC[C@H](/N=C/c1ccc(B(O)O)cc1)C(=O)O`, the Activity in test [3] came to 54%; in [2] it was 49%.
As for `O=C(O)c1ccc(C(=O)O)c(/N=C/c2ccc(B(O)O)cc2)c1`, the Activity in test [1] is listed as 72%.
For the molecule `O=C(O)CN=C(/N=C/c1ccc(B(O)O)cc1)/N=C/c1ccc(B(O)O)cc1`, the Activity in test [1] stood at 18%.
The same measure, in the same setting: the value for `OB(O)c1ccc(/C=N/c2ccc(-c3ccc(/N=C/c4ccc(B(O)O)cc4)cc3)cc2)cc1` was 14%.
As a reminder, the IC50 is the point on the concentration scale where inhibition reaches its midpoint. Consider `CCN(CC)CCCOc1ccc(-n2c3c(c4ccccc4c2=O)C(=O)c2ccccc2-3)cc1`, for which, in test [4], the half-inhibitory concentration (IC50) worked out at 3.08 nM.
For the molecule `O=c1[nH]cc(F)c(=O)[nH]1` [FLUOROURACIL], the IC50 in test [5] was over 100000 nM.
Consider `CN(C)C(=N)NC(=N)N` [METFORMIN], for which the CI in test [6] and in test [7] was under 1 each time.
With `NC(=O)c1cccc2cn(-c3ccc([C@@H]4CCCNC4)cc3)nc12` [NIRAPARIB], the figures for the IC50 in [8] and in [5] were 127 nM and 24 nM, respectively.
Broadly, the TGI is the reduction of tumour growth relative to the control group. With `O=C1C2=C(CCN(Cc3ccccc3)C2)N2CCN=C2N1Cc1ccc(F)cc1F` [ONC-206], the “fold change (FC)” value is recorded as 1.4 in test [9], 1.5 in test [11], 1.4 in [15] and 1.7 in test [18]. Besides, the TGI in test [10] and in [12] was 73% each time. For the same molecule, the Activity in test [13] came out at 16%; in test [14] it was 83%; in [21], 83%; in [22], 16%. Moreover, the “inhibition (INH)” value in [16] is listed as 34%; in test [20] it was 26.6%. The figures for the IC50 in [17] and in test [19] were 330 nM and 240 nM, respectively.
Take `CC(=O)O[C@H]1C(=O)[C@@]2(C)[C@H]([C@H](OC(=O)c3ccccc3)[C@]3(O)C[C@H](OC(=O)[C@H](O)[C@@H](NC(=O)c4ccccc4)c4ccccc4)C(C)=C1C3(C)C)[C@]1(OC(C)=O)CO[C@@H]1C[C@@H]2O` [PACLITAXEL]: the IC50 in [23] stood at 0.1 nM; in test [5], 0.5 nM. For the same molecule, the CI in test [24] and in [25] was under 1 throughout.
Consider `CCC(C)(C)C(=O)O[C@H]1C[C@@H](C)C=C2C=C[C@H](C)[C@H](CC[C@@H]3C[C@@H](O)CC(=O)O3)[C@H]21` [SIMVASTATIN], for which the “fold change (FC)” value in [26] stood at 88; in [27], 354; in test [28], 127. The half-inhibitory concentration (IC50) in test [23] was about 15000 nM; in test [5], about 17000 nM.
